The record followed here is PubChem BioAssay (NCI).

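Interpolation was linear, between the two tested concentrations surrounding the appropriate level; five concentrations were tested over 48 hours in 96-well plates. TGI: total growth inhibition.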

Among the test systems are A498 renal; NCI-H460 lung; SF-295 CNS; MDA-MB-231 breast; MDA-MB-435; MDA-N; HCT-15 colon; HT29 colon; NCI-H226 lung; IGROV1 ovarian; SW-620 colon; DU-145 prostate; T-47D breast; U251 CNS; EKVX NSCLC; RXF 393 renal.
What all share (test): NCI anticancer screen, dose series, 48 h

For `COc1ccc(S(=O)(=O)N2C(=O)CCC2C(=O)NC(N)=O)cc1` (stereo not drawn), the TGI in the test on A498 renal, in the test on NCI-H460 lung, with SF-295 CNS, with MDA-MB-231 breast, in the test with MDA-MB-435 and in the test on MDA-N was over 100 µM each time. In addition, the TGI with HCT-15 colon, with HT29 colon, in the test on NCI-H226 lung, in the test with IGROV1 ovarian, in the test with SW-620 colon and with DU-145 prostate was over 100 µM in each case. Also, the TGI with T-47D breast, in the test with U251 CNS and in the test on EKVX NSCLC was over 100 µM each time.

For the molecule `O=C(Nc1ccc(C(F)(F)F)cc1)NC(F)(F)F`, the TGI in the test on A498 renal, in the test with MDA-MB-435, in the test with MDA-N, in the test with HCT-15 colon, in the test with HT29 colon and with IGROV1 ovarian was over 100 µM in each case. In addition, the TGI with SW-620 colon, in the test on RXF 393 renal, in the test with T-47D breast, in the test on U251 CNS and with EKVX NSCLC was over 100 µM in each case.

On to `Oc1c(Br)cc(/C=C/c2ccnc(/C=C/c3cc(Br)c(O)c(Br)c3)c2)cc1Br`, for which the TGI in the test with A498 renal was 54.4 µM; in the test with NCI-H460 lung, over 100 µM; with SF-295 CNS it was over 100 µM; in the test with MDA-MB-231 breast, 59.4 µM; with MDA-MB-435, 63 µM; with MDA-N it was 91.3 µM. Besides, the TGI was 73 µM with HCT-15 colon; 40.2 µM in the test on HT29 colon; over 100 µM with IGROV1 ovarian; over 100 µM in the test with SW-620 colon; 39.1 µM in the test on DU-145 prostate; 52.1 µM in the test with T-47D breast. Also, the TGI in the test with U251 CNS was found to be 30.8 µM; in the test on EKVX NSCLC, 56.4 µM.

Turning to `Cc1ccc(CC2(C(=O)O)Cc3ccc(C)cc3C2)cc1` (stereo not drawn), the TGI in the test with A498 renal, with NCI-H460 lung, with SF-295 CNS, in the test on MDA-MB-231 breast, in the test on MDA-MB-435 and in the test with MDA-N was over 100 µM in each case. For the same molecule, the TGI in the test on HCT-15 colon, in the test on HT29 colon, in the test with NCI-H226 lung, in the test on IGROV1 ovarian, in the test with SW-620 colon and in the test with DU-145 prostate was over 100 µM each time. The TGI in the test on T-47D breast, in the test with U251 CNS and in the test on EKVX NSCLC was over 100 µM each time.

For the molecule `CC(C)[N+]([O-])(CCCNc1c2ccccc2nc2cccc([N+](=O)[O-])c12)C(C)C`, the TGI came out at 0.289 µM in the test on A498 renal; 1.78 µM with NCI-H460 lung; 0.904 µM in the test with SF-295 CNS; 0.441 µM with MDA-MB-231 breast; 0.0758 µM in the test on MDA-MB-435; 0.137 µM with MDA-N. The TGI is 1.58 µM in the test with HCT-15 colon; 1.93 µM with HT29 colon; 2.56 µM in the test with NCI-H226 lung; 0.488 µM in the test on IGROV1 ovarian; 4.9 µM in the test with SW-620 colon; 0.133 µM with DU-145 prostate. For the same molecule, the TGI in the test with RXF 393 renal came to 0.403 µM; in the test on U251 CNS, 1.19 µM; in the test with EKVX NSCLC, 0.528 µM.

Take `CC(C)CC(NC(=O)C(C)(CI)Cc1ccccc1)C(=O)Nc1ccccc1` (stereo not drawn): the TGI in the test with A498 renal, with NCI-H460 lung, in the test on SF-295 CNS, in the test with MDA-MB-231 breast, with MDA-MB-435 and in the test on MDA-N was over 100 µM throughout. In addition, the TGI in the test on HCT-15 colon, with NCI-H226 lung, with IGROV1 ovarian, in the test on SW-620 colon, in the test on DU-145 prostate and with RXF 393 renal was over 100 µM throughout. Moreover, the TGI in the test with U251 CNS and with EKVX NSCLC was over 100 µM each time.

For `CCOC(=O)c1nc2cc(C(F)(F)F)ccc2nc1Oc1ccc(C#N)cc1`, the TGI with A498 renal, in the test with NCI-H460 lung, in the test on SF-295 CNS, in the test with MDA-MB-231 breast, with MDA-MB-435 and with MDA-N was over 100 µM throughout. In addition, the TGI in the test with HCT-15 colon, in the test on NCI-H226 lung, in the test with IGROV1 ovarian, in the test on SW-620 colon, with DU-145 prostate and with RXF 393 renal was over 100 µM throughout. The TGI with T-47D breast, in the test on U251 CNS and with EKVX NSCLC was over 100 µM in each case.

On to `C=CCOC(=O)CC[C@H](NC(=O)[C@@H](CCC(F)(F)F)Cc1ccc(O)cc1)C(=O)OCC=C`, for which the TGI in the test on SF-295 CNS is over 100 µM; in the test on MDA-MB-435 it was 76 µM; in the test with MDA-N, over 100 µM; with HCT-15 colon, over 100 µM; with HT29 colon, over 100 µM; with NCI-H226 lung, over 100 µM. Besides, the TGI in the test on IGROV1 ovarian is over 100 µM; with SW-620 colon it was over 100 µM; with RXF 393 renal, over 100 µM; in the test with T-47D breast, 51.5 µM; in the test on EKVX NSCLC, 73.4 µM.

Consider `COC(=O)CCC(=O)c1ccc2c(c1)CCC2`, for which the TGI in the test on A498 renal, in the test on NCI-H460 lung, in the test on SF-295 CNS, in the test with MDA-MB-231 breast, with MDA-MB-435 and with MDA-N was over 100 µM in each case. Besides, the TGI with HCT-15 colon, in the test on HT29 colon, in the test on IGROV1 ovarian, in the test on SW-620 colon, in the test with DU-145 prostate and with RXF 393 renal was over 100 µM throughout. Further, the TGI in the test with T-47D breast, in the test on U251 CNS and with EKVX NSCLC was over 100 µM throughout.

`OC1(C(Sc2cc(C(F)(F)F)cc(C(F)(F)F)c2)Sc2cc(C(F)(F)F)cc(C(F)(F)F)c2)C=CCCC1` (stereo not drawn): the TGI in the test with A498 renal stood at 4.58 µM; in the test with NCI-H460 lung it was 3.55 µM; in the test on SF-295 CNS it was 6.39 µM; in the test on MDA-MB-435 it was 7.03 µM; with MDA-N, 8.16 µM; in the test with HCT-15 colon it was 4.13 µM. In addition, the TGI worked out at 7.24 µM in the test on HT29 colon; 8.56 µM with IGROV1 ovarian; 7.74 µM in the test with SW-620 colon; 8.99 µM in the test with DU-145 prostate; 4.77 µM with RXF 393 renal; 4.26 µM in the test with T-47D breast. The molecule also had a TGI in the test on EKVX NSCLC of 6.78 µM.
